Test results reported in patent US20090099169A1, “Benzofuran Compounds As EP1 Receptor Antagonists” (GLAXO GROUP LIMITED, priority 2006, published 2009).
Counter-ions that a name gives are not always drawn.

target: T1, human EP1 receptor (Homo sapiens, UniProt P34995); experiment: human EP1 calcium mobilisation assay; format: cell-based; set-up: expressed in transfected cells; settings: CHO-K1 cells, antagonism of PGE2; averages of a number of experiments; read-out: functional pKi value (human EP1 calcium mobilisation assay) (converted)
T1 sequence (P34995 1-402): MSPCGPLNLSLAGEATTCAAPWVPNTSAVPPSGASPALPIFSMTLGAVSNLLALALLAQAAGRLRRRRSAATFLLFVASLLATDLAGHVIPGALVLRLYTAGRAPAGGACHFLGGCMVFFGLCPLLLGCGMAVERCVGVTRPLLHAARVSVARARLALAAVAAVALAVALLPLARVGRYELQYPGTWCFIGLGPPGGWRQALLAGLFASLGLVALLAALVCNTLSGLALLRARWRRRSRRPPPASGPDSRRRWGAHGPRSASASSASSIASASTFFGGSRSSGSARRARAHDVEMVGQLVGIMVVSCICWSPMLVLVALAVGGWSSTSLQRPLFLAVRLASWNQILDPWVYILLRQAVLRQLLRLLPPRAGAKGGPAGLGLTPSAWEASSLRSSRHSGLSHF
In short: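 CHO-K1 cells stably transfected with human EP1 or EP3, loaded with Fluo-4 after 24 h culture, treated with compound, then challenged with PGE2. Calcium-driven fluorescence read on FLIPR; pIC50 is half-maximal inhibition of PGE2-induced calcium mobilisation, from curve fitting.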

Ki, ≤ 316 nM:
Cc1cc(C(=O)Nc2ccc(CN3CCC(O)CC3)cc2)nn1Cc1cc(Cl)cc2cc(C(C)C)oc12 [Example 16, 1-{[5-Chloro-2-(1-methylethyl)-1-benzofuran-7-yl]methyl}-N-{4-[(4-hydroxy-1-piperidinyl)methyl]phenyl}-5-methyl-1H-pyrazole-3-carboxamide hydrochloride]
CCNCc1ccc(NC(=O)c2cc(C)n(Cc3cc(Cl)cc4cc(C(C)C)oc34)n2)cc1 [Example 15, 1-{[5-Chloro-2-(1-methylethyl)-1-benzofuran-7-yl]methyl}-N-{4-[(ethylamino)methyl]phenyl}-5-methyl-1H-pyrazole-3-carboxamide hydrochloride]
CC(C)c1cc2cc(Cl)cc(Cc3ccc(C(=O)O)o3)c2o1 [Example 1, 5-{[5-Chloro-2-(1-methylethyl)-1-benzofuran-7-yl]methyl}-2-furancarboxylic Acid]
Cc1cc(C(=O)O)nn1Cc1cc(Cl)cc2cc(C(C)C)oc12 [Example 3, 1-{[5-Chloro-2-(1-methylethyl)-1-benzofuran-7-yl]methyl}-5-methyl-1H-pyrazole-3-carboxylic Acid]
Cc1cc(C(=O)NN2CCOCC2)nn1Cc1cc(Cl)cc2cc(C3CCCCC3)oc12 [Example 28, 1-[(5-Chloro-2-cyclohexyl-1-benzofuran-7-yl)methyl]-5-methyl-N-4-morpholinyl-1H-pyrazole-3-carboxamide]
Cc1cc(C(=O)Nc2ccc(CN3CC[C@@H](O)C3)cc2)nn1Cc1cc(Cl)cc2cc(C(C)C)oc12 [Example 17, 1-{[5-Chloro-2-(1-methylethyl)-1-benzofuran-7-yl]methyl}-N-(4-{[(3R)-3-hydroxy-1-pyrrolidinyl]methyl}phenyl)-5-methyl-1H-pyrazole-3-carboxamide hydrochloride]
